Patent publication US9951372B2, “Compounds and methods for assaying redox state of metabolically active cells and methods for measuring NAD(P)/NAD(P)H” (PROMEGA CORPORATION, priority 2011, dated 2018)
Like-named read-outs stand apart in the source and are kept apart here.

Assays:
NAD biosynthesis pathway = assay: Monitoring inhibition of NAD biosynthesis; assay type: cell-based; conditions: 48 hours of treatment; several cell lines; detection with PBI 4312
Protocol: Cells were plated at 7.5×10^3 cells/12.5 ul into wells of a 384-well plates. The cells were plated in full media containing 10% FBS (PC3 and A549 cells in F12K; Hela, MD-AMB and HET 116 cells in DMEM without pyruvate; HepG2 cells in E-MEM and Jurkat cells in RPMI). […] The cells were placed in a CO2 dependent incubator. […] Promega Cat. No V8920) was added to each well. The reaction was incubated for 30 minutes at room temperature, and luminescence measured using a Tecan plate luminometer. The data are shown as % inhibition compared to control (no inhibitor) and are plotted using the sigmoidal dose-response, variable slope model supplied with SigmaPlot 11.0 software. A signal-to-background ratio (S/B) calculated between control cells and cells treated with the highest FK866 concentration.

rat diaphorase = target: T1, rat diaphorase (Rattus norvegicus, UniProt P05982); assay type: biochemical; conditions: for Fluorescence time course, Rat: 10 uM NADH
T1 construct: purchased Sigma
T1 sequence (P05982 2-274 limits assumed): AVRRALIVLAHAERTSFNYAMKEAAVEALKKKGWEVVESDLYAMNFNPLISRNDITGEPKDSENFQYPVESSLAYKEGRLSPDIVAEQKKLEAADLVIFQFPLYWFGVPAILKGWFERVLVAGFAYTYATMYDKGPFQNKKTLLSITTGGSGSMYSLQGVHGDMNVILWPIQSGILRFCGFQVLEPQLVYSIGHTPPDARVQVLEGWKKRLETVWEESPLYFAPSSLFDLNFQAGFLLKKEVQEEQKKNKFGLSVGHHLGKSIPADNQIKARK

Clostridium diaphorase = assay: Fluorescent NADH detection assay, Clostridium diaphorase; assay type: biochemical; conditions: for FLUs: 1 u/ml Clostridium diaphorase; for Fluorescence time course, Clostridium: 10 uM NADH
Protocol: Each fluorescent substrate (PBI-4412, 4413, 4440, and 4441) was incubated at 920 μM with 0 μM or 10 μM NADH (Sigma) or a titration of NADH (Table 8) and 1 u/ml rat diaphorase (Sigma) or 1 u/ml Clostridium diaphorase (Sigma) in a volume of 100 μl in 50 mM Tris pH 7.5. Single reactions were prepared in the wells of a 96-well black plate at room temperature. Fluorescence was monitored over the course of two hours at excitation and emission wavelengths of 485 and 527, respectively, using a fluorescence plate reader. […] Table 7 and FIGS. 24a-b show the reaction time course with each substrate with 10 uM NADH. Table 8 and FIG. 25 show the NADH titration at 60 minutes with PBI-4440 and 4412 with rat diaphorase.

HeLa cells = assay: Fluorescent imaging of live cells; assay type: cell-based; conditions: 10 μM substrate
Protocol: HeLa cells were plated at 40,000 cell/well into wells of an 8-well chambered coverslip and incubated at 37° C.+5% CO2. The media (DMEM) was replaced with warm complete media (with 10% FBS) containing 10 μM PBI-4412, 4413, 4440 or 4441. Cells were then transferred to a confocal microscope for imaging using 10% λ488 nm laser power (4412, 4413, and 4441) or 5% laser power (4440). All images (FIGS. 6a-d) are at 30× magnification.

HEK293 cells = assay: Measuring metabolically active cells with quinone fluorescein derivatives; assay type: cell-based; conditions: HEK293 cell dilutions; 60 minutes; 480ex/530em
Protocol: i. Two-fold serial dilutions of HEK293 cells were prepared in full DMEM media, and 100 μl per well were transferred into wells of 96-well plates. Compounds PBI 4440 and 4412 were diluted in full DMEM media to make 20 μM and 10 μM stocks, respectively. 100 μl of the prepared compound stocks were added to the cells, and the cells were incubated for 60 minutes in a 37° C., 5% CO2 incubator. Following incubation, the cells were removed from incubator, and fluorescence measured with Tecan Infinite 500 at 480ex/Em530em wavelength.

[1] = 0 μM NADH, 60 min, 1 u/ml rat diaphorase
[2] = 10 μM NADH, 60 min, 1 u/ml rat diaphorase, substrate 920 μM
[3] = NADH 0 μM, 60 minutes, rat diaphorase
[4] = NADH 1.25 μM, 60 minutes, rat diaphorase
[5] = NADH 2.5 μM, 60 minutes, rat diaphorase
[6] = NADH 5 μM, 60 minutes, rat diaphorase
[7] = NADH 10 μM, 60 minutes, rat diaphorase
[8] = NADH 20 μM, 60 minutes, rat diaphorase
[9] = NADH 40 μM, 60 minutes, rat diaphorase
[10] = NADH 80 μM, 60 minutes, rat diaphorase
[11] = 10 μM NADH, 60 min, substrate 920 μM

Q: Which “effect on cellular NAD levels” value (NAD biosynthesis pathway) does the source give for `O=C(/C=C/c1cccnc1)NCCCCC1CCN(C(=O)c2ccccc2)CC1` [FK866] here?
A: decrease in NAD levels

Q: For `CC1=CC(=O)C(C)=C(C(C)(C)CC(=O)N(C)CCN(C)C(=O)Oc2ccc3c(c2)Oc2cc(O)ccc2C32OC(=O)c3ccccc32)C1=O` (centres unmarked) [PBI 4412, Mono-quinone trimethyllock diamine fluorescein], which FLUs (rat diaphorase; [1]) is on record?
A: 3772 FLUs

Q: What about the FLUs (rat diaphorase; [2]) of the same compound?
A: 170571 FLUs

Q: What about the “Fluorescence time course, Rat” value (rat diaphorase; 2 min) of the same compound?
A: 10099 FLUs

Q: And the “Fluorescence time course, Rat” value (rat diaphorase; 4 min)?
A: 24171 FLUs

Q: What about the “Fluorescence time course, Rat” value (rat diaphorase; 5 min) of the same compound?
A: 33247 FLUs

Q: And the “Fluorescence time course, Rat” value (rat diaphorase; 10 min)?
A: 62502 FLUs

Q: And the “Fluorescence time course, Rat” value (rat diaphorase; 20 min)?
A: 106834 FLUs

Q: And the “Fluorescence time course, Rat” value (rat diaphorase; 30 min)?
A: 133278 FLUs

Q: And the “Fluorescence time course, Rat” value (rat diaphorase; 40 min)?
A: 151941 FLUs

Q: And the “Fluorescence time course, Rat” value (rat diaphorase; 50 min)?
A: 162636 FLUs

Q: What about the “Fluorescence time course, Rat” value (rat diaphorase; 60 min) of the same compound?
A: 170571 FLUs

Q: What about the “Fluorescence time course, Rat” value (rat diaphorase; 70 min) of the same compound?
A: 175380 FLUs

Q: And the “Fluorescence time course, Rat” value (rat diaphorase; 80 min)?
A: 177516 FLUs

Q: What about the “Fluorescence time course, Rat” value (rat diaphorase; 90 min) of the same compound?
A: 178423 FLUs

Q: And the “Fluorescence time course, Rat” value (rat diaphorase; 100 min)?
A: 180027 FLUs

Q: What about the “Fluorescence time course, Rat” value (rat diaphorase; 110 min) of the same compound?
A: 182051 FLUs

Q: And the “Fluorescence time course, Rat” value (rat diaphorase; 120 min)?
A: 181077 FLUs

Q: What about the FLUs (rat diaphorase; [3]) of the same compound?
A: 3772 FLUs

Q: What about the FLUs (rat diaphorase; [4]) of the same compound?
A: 26228 FLUs

Q: And the FLUs (rat diaphorase; [5])?
A: 51005 FLUs

Q: And the FLUs (rat diaphorase; [6])?
A: 97995 FLUs

Q: And the FLUs (rat diaphorase; [7])?
A: 170571 FLUs

Q: What about the FLUs (rat diaphorase; [8]) of the same compound?
A: 183286 FLUs

Q: And the FLUs (rat diaphorase; [9])?
A: 185532 FLUs

Q: And the FLUs (rat diaphorase; [10])?
A: 183372 FLUs

Q: And the FLUs (Clostridium diaphorase; 0 μM NADH, 60 min)?
A: 3940 FLUs

Q: And the FLUs (Clostridium diaphorase; [11])?
A: 125352 FLUs

Q: What about the “Fluorescence time course, Clostridium” value (Clostridium diaphorase; 2 min) of the same compound?
A: 9933 FLUs

Q: And the “Fluorescence time course, Clostridium” value (Clostridium diaphorase; 4 min)?
A: 24883 FLUs

Q: And the “Fluorescence time course, Clostridium” value (Clostridium diaphorase; 5 min)?
A: 33881 FLUs

Q: What about the “Fluorescence time course, Clostridium” value (Clostridium diaphorase; 10 min) of the same compound?
A: 60458 FLUs

Q: What about the “Fluorescence time course, Clostridium” value (Clostridium diaphorase; 20 min) of the same compound?
A: 95260 FLUs

Q: And the “Fluorescence time course, Clostridium” value (Clostridium diaphorase; 30 min)?
A: 112465 FLUs

Q: And the “Fluorescence time course, Clostridium” value (Clostridium diaphorase; 40 min)?
A: 120688 FLUs

Q: And the “Fluorescence time course, Clostridium” value (Clostridium diaphorase; 50 min)?
A: 123934 FLUs

Q: And the “Fluorescence time course, Clostridium” value (Clostridium diaphorase; 60 min)?
A: 125352 FLUs

Q: What about the “Fluorescence time course, Clostridium” value (Clostridium diaphorase; 70 min) of the same compound?
A: 126364 FLUs

Q: And the “Fluorescence time course, Clostridium” value (Clostridium diaphorase; 80 min)?
A: 125242 FLUs

Q: And the “Fluorescence time course, Clostridium” value (Clostridium diaphorase; 90 min)?
A: 124786 FLUs

Q: And the “Fluorescence time course, Clostridium” value (Clostridium diaphorase; 100 min)?
A: 124434 FLUs

Q: What about the “Fluorescence time course, Clostridium” value (Clostridium diaphorase; 110 min) of the same compound?
A: 124460 FLUs

Q: And the “Fluorescence time course, Clostridium” value (Clostridium diaphorase; 120 min)?
A: 124182 FLUs

Q: And the “reduction of substrate in live cells (confocal images)” value (HeLa cells)?
A: only reduced once inside cells

Q: What about the “relationship of fluorescence to cell number” value (HEK293 cells) of the same compound?
A: linear correlation between cell number and fluorescence

Q: Which results are given for `CC1=C(C)C(=O)C(C(C)(C)CC(=O)N(C)CCN(C)C(=O)Oc2ccc3c(c2)Oc2cc(O)ccc2C32OC(=O)c3ccccc32)=C(C)C1=O` (centres unmarked) [PBI 4440, Mono-quinone trimethyllock diamine fluorescein]?
A: FLUs (rat diaphorase; [1]): 2922 FLUs; FLUs (rat diaphorase; [2]): 180909 FLUs; Fluorescence time course, Rat (rat diaphorase; 2 min): 6473 FLUs; Fluorescence time course, Rat (rat diaphorase; 4 min): 18626 FLUs; Fluorescence time course, Rat (rat diaphorase; 5 min): 28997 FLUs; Fluorescence time course, Rat (rat diaphorase; 10 min): 73216 FLUs; Fluorescence time course, Rat (rat diaphorase; 20 min): 133999 FLUs; Fluorescence time course, Rat (rat diaphorase; 30 min): 161355 FLUs; Fluorescence time course, Rat (rat diaphorase; 40 min): 173345 FLUs; Fluorescence time course, Rat (rat diaphorase; 50 min): 178374 FLUs; Fluorescence time course, Rat (rat diaphorase; 60 min): 180909 FLUs; Fluorescence time course, Rat (rat diaphorase; 70 min): 182618 FLUs; Fluorescence time course, Rat (rat diaphorase; 80 min): 182416 FLUs; Fluorescence time course, Rat (rat diaphorase; 90 min): 182263 FLUs; Fluorescence time course, Rat (rat diaphorase; 100 min): 181996 FLUs; Fluorescence time course, Rat (rat diaphorase; 110 min): 182253 FLUs; Fluorescence time course, Rat (rat diaphorase; 120 min): 182132 FLUs; FLUs (rat diaphorase; [3]): 2922 FLUs; FLUs (rat diaphorase; [4]): 24788 FLUs; FLUs (rat diaphorase; [5]): 50387 FLUs; FLUs (rat diaphorase; [6]): 99331 FLUs; FLUs (rat diaphorase; [7]): 180909 FLUs; FLUs (rat diaphorase; [8]): 309004 FLUs; FLUs (rat diaphorase; [9]): 304293 FLUs; FLUs (rat diaphorase; [10]): 305861 FLUs; FLUs (Clostridium diaphorase; 0 μM NADH, 60 min): 3050 FLUs; FLUs (Clostridium diaphorase; [11]): 43362 FLUs; Fluorescence time course, Clostridium (Clostridium diaphorase; 2 min): 3611 FLUs; Fluorescence time course, Clostridium (Clostridium diaphorase; 4 min): 7197 FLUs; Fluorescence time course, Clostridium (Clostridium diaphorase; 5 min): 10142 FLUs; Fluorescence time course, Clostridium (Clostridium diaphorase; 10 min): 20624 FLUs; Fluorescence time course, Clostridium (Clostridium diaphorase; 20 min): 33781 FLUs; Fluorescence time course, Clostridium (Clostridium diaphorase; 30 min): 39807 FLUs; Fluorescence time course, Clostridium (Clostridium diaphorase; 40 min): 42268 FLUs; Fluorescence time course, Clostridium (Clostridium diaphorase; 50 min): 43000 FLUs; Fluorescence time course, Clostridium (Clostridium diaphorase; 60 min): 43362 FLUs; Fluorescence time course, Clostridium (Clostridium diaphorase; 70 min): 43750 FLUs; Fluorescence time course, Clostridium (Clostridium diaphorase; 80 min): 43425 FLUs; Fluorescence time course, Clostridium (Clostridium diaphorase; 90 min): 43468 FLUs; Fluorescence time course, Clostridium (Clostridium diaphorase; 100 min): 43296 FLUs; Fluorescence time course, Clostridium (Clostridium diaphorase; 110 min): 43005 FLUs; Fluorescence time course, Clostridium (Clostridium diaphorase; 120 min): 43150 FLUs; reduction of substrate in live cells (confocal images) (HeLa cells): only reduced once inside cells; relationship of fluorescence to cell number (HEK293 cells): linear correlation between cell number and fluorescence
